{
  "source": "ChEMBL document CHEMBL4507264",
  "about": "“Data for DCP probe BAY-7598” (2021)",
  "key": {"[1]": {"target": "Endothelin-1 receptor (Homo sapiens) (UniProt P25101)", "sequence (P25101 whole entry)": "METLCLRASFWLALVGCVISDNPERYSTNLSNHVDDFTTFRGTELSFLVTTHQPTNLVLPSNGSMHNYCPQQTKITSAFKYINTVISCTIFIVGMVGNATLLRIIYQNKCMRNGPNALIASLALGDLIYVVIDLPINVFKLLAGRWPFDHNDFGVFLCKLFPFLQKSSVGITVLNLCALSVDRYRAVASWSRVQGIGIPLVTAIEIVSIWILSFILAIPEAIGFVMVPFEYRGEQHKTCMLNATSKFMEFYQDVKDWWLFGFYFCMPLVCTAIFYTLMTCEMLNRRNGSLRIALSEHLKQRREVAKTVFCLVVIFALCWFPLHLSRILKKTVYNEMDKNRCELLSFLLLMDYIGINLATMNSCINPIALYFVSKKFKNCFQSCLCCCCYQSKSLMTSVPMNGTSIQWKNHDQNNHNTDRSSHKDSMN", "conditions": "Compound concentration 10.0 uM; call rule not given here"}, "[2]": {"target": "Mu-type opioid receptor (Homo sapiens) (UniProt P35372)", "sequence (P35372 whole entry)": "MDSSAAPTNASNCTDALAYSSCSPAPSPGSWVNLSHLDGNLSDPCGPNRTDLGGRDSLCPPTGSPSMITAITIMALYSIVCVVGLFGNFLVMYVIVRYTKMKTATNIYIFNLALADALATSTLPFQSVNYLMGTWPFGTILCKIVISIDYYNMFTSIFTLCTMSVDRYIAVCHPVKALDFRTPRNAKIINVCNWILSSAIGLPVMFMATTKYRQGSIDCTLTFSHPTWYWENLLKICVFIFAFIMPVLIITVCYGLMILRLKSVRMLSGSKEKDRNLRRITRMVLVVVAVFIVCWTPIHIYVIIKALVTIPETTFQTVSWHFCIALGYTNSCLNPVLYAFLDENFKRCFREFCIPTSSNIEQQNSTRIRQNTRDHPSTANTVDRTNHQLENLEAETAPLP", "conditions": "Compound concentration 10.0 uM"}, "[3]": {"organism": "Mus musculus", "assay": "Inhibition of Phorbol Ester at 10 µM in the Eurofins-Panlabs radioligand binding assay (Eurofins_assay_264500)", "design": "ligand concentration 3 nM", "conditions": "Compound concentration 10.0 uM"}, "[4]": {"target": "Sigma non-opioid intracellular receptor 1 (Homo sapiens) (UniProt Q99720)", "sequence (Q99720 whole entry)": "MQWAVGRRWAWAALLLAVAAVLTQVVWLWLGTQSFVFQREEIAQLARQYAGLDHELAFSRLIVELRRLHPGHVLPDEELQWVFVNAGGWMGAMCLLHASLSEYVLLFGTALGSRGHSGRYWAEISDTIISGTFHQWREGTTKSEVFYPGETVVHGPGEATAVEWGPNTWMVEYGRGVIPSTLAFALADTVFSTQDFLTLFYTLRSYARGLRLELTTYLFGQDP", "assay": "Inhibition of Sigma 1 at 10 µM in the Eurofins-Panlabs radioligand binding assay (Eurofins_assay_278110)", "design": "ligand concentration 8 nM", "conditions": "Compound concentration 10.0 uM"}, "[5]": {"target": "Adenosine receptor A2a (Homo sapiens) (UniProt P29274)", "conditions": "Compound concentration 10.0 uM"}, "[6]": {"target": "Glutamate NMDA receptor (Rattus norvegicus) (UniProt P35439+Q00959+Q00960+Q00961+Q62645+Q8VHN2+Q9R1M7)", "conditions": "Compound concentration 10.0 uM"}, "[7]": {"target": "Mu-type opioid receptor (Homo sapiens) (UniProt P35372)", "conditions": "Compound concentration 10.0 uM", "remark": "listed apart in the source"}, "[8]": {"target": "ATP-sensitive inward rectifier potassium channel 11 (Cricetulus griseus) (UniProt A0A3L7HHE1)", "sequence (A0A3L7HHE1 as listed by the source)": "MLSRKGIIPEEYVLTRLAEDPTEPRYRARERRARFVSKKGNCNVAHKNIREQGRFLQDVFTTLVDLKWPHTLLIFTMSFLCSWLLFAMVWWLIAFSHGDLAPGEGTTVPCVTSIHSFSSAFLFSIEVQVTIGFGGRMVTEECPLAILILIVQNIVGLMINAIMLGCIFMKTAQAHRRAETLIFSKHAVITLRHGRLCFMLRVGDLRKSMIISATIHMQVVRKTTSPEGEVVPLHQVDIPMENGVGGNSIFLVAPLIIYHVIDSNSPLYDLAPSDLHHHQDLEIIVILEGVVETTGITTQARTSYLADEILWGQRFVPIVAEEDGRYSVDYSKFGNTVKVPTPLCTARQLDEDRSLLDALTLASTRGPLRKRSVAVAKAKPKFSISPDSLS", "assay": "Inhibition of Potassium Channel [KATP] at 10 µM in the Eurofins-Panlabs radioligand binding assay (Eurofins_assay_265600)", "conditions": "Cricetinae; Compound concentration 10.0 uM"}, "[9]": {"target": "Delta-type opioid receptor (Homo sapiens) (UniProt P41143)", "sequence (P41143 whole entry)": "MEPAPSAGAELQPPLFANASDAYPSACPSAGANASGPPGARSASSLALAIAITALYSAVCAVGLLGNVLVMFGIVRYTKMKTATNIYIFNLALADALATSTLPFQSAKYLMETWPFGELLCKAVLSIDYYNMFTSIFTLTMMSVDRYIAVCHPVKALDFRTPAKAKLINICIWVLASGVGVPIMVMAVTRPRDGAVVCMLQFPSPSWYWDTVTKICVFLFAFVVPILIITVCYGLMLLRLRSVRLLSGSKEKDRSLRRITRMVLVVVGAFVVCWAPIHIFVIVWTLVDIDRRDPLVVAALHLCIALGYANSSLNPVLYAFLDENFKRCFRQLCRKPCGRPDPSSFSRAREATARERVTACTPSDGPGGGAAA", "conditions": "Compound concentration 10.0 uM"}, "[10]": {"target": "Beta-1 adrenergic receptor (Homo sapiens) (UniProt P08588)", "sequence (P08588 whole entry, looked up)": "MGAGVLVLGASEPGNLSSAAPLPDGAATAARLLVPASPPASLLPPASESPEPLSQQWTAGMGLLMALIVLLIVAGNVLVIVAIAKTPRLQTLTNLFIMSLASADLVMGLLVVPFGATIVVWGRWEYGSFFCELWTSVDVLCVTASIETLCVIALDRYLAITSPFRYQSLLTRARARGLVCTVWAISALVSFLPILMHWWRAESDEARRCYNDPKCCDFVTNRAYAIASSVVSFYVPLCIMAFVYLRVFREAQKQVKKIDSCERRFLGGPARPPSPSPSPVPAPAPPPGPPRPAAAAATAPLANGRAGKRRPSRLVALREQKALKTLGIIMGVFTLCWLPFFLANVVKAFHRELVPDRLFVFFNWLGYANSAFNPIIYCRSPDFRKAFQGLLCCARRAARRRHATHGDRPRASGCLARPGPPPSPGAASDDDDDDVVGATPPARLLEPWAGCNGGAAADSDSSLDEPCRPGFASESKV", "conditions": "Compound concentration 10.0 uM"}, "[11]": {"target": "B2 bradykinin receptor (Homo sapiens) (UniProt P30411)", "assay": "Bradykinin B2 Eurofins-Panlabs radioligand binding assay", "conditions": "Compound concentration 10.0 uM"}, "[12]": {"target": "Sigma non-opioid intracellular receptor 1 (Homo sapiens) (UniProt Q99720)", "assay": "Sigma 1 Eurofins-Panlabs radioligand binding assay", "design": "ligand concentration 8 nM", "conditions": "Compound concentration 10.0 uM"}, "[13]": {"target": "L-type calcium channel, dihydropyridine site (Cav1.2 alpha-1C) (Homo sapiens, UniProt Q13936)", "sequence (Q13936 whole entry)": "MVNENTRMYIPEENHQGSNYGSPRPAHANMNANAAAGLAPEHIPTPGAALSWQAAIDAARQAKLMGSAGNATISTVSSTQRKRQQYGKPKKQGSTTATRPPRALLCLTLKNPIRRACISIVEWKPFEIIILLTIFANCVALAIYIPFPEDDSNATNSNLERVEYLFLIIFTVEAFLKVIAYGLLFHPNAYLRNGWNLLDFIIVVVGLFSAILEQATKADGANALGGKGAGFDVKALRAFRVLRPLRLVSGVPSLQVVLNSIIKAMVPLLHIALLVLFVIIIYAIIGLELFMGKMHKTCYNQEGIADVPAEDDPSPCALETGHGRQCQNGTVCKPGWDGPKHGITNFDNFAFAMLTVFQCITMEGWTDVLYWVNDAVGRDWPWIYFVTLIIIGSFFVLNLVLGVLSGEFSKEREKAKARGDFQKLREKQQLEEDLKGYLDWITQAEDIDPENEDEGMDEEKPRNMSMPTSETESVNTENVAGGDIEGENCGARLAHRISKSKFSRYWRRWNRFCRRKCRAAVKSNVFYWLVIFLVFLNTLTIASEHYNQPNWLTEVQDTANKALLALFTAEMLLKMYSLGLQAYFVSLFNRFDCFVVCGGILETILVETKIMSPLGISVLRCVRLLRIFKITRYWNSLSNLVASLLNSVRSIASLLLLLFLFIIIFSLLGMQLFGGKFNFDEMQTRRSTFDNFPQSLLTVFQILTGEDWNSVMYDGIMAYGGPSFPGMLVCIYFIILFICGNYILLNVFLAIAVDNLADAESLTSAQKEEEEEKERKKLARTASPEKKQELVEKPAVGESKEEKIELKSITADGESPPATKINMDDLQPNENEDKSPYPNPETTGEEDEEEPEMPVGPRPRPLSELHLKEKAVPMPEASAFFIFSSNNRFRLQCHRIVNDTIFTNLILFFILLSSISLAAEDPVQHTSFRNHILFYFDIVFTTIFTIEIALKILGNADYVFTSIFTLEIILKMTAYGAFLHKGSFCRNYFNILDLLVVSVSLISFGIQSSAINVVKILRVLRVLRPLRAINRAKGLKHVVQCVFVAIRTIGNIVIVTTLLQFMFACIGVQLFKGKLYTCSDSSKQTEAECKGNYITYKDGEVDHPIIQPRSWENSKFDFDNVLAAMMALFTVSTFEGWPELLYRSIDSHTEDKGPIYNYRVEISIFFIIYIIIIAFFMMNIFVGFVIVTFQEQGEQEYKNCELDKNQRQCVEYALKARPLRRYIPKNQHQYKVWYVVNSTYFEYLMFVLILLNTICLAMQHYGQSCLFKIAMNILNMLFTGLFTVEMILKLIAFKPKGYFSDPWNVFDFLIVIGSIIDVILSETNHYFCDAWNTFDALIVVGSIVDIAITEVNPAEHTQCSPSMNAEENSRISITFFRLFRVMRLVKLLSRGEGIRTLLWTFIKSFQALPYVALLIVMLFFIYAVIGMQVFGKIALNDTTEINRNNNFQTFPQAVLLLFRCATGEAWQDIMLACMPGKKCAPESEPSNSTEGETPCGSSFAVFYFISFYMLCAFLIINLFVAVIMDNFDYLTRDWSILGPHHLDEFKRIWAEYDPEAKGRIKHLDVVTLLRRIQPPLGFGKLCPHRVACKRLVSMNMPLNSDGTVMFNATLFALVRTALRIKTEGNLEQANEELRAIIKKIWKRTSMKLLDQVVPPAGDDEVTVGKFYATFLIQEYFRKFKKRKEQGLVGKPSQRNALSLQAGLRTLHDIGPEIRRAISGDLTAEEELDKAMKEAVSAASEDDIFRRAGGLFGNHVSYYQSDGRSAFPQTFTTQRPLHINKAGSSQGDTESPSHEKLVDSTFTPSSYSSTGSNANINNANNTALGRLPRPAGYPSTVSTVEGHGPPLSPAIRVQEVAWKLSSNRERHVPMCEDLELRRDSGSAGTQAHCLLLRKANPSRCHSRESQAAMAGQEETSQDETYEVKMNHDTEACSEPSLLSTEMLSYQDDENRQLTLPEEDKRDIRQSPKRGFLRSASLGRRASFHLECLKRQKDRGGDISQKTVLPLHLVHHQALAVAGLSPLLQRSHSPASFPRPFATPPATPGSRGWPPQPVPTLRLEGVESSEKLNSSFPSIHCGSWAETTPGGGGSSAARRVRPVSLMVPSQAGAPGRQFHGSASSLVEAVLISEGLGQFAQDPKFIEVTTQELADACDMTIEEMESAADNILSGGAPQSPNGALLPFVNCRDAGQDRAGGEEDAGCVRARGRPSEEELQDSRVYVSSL", "assay": "Inhibition of Calcium Channel L-Type, Dihydropyridine at 10 µM in the Eurofins-Panlabs radioligand binding assay (Eurofins_assay_214600)", "design": "ligand concentration 0.1 nM, non-specific ligand with concentration 1 µM Nitrendipine, incubation time 90 min, incubation temperature 25 °C", "conditions": "Wistar, rat, rat cerebral cortex preparation, probe [3H] Nitrendipine; compound concentration 10 uM; target entry is the homologue from another species"}, "[14]": {"target": "Acetylcholine receptor subunit alpha (Homo sapiens) (UniProt P02708)", "sequence (P02708 whole entry)": "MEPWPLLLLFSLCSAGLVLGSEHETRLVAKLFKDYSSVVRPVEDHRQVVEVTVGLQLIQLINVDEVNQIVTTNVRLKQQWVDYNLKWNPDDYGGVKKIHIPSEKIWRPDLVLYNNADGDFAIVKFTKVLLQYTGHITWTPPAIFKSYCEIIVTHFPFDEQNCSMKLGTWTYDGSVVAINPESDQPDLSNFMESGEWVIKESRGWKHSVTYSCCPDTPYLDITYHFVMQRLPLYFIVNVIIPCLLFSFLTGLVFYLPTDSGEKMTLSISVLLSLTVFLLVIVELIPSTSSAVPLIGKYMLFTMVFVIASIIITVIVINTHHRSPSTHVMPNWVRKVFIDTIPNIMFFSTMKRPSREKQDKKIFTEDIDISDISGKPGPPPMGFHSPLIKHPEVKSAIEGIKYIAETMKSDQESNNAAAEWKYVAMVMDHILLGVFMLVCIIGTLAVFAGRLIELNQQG", "assay": "Inhibition of Nicotinic Acetylcholine D1, Bungarotoxin at 10 µM in the Eurofins-Panlabs radioligand binding assay (Eurofins_assay_258700)", "conditions": "Compound concentration 10.0 uM"}, "[15]": {"target": "T1, Muscarinic acetylcholine receptor M1 (Homo sapiens) (UniProt P11229)", "T1 sequence (whole entry)": "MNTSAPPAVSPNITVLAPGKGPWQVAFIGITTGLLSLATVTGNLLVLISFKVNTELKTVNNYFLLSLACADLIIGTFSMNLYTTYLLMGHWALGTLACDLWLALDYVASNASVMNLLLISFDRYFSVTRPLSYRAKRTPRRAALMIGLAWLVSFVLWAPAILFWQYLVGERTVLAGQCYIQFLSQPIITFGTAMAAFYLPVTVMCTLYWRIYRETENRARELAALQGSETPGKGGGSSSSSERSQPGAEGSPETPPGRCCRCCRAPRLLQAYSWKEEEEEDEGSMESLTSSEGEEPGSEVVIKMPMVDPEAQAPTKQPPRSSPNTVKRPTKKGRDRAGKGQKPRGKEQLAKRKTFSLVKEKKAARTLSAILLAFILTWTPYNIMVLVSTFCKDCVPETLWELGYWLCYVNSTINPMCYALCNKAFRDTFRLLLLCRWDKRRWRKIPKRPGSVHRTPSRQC", "conditions": "Compound concentration 10.0 uM"}},
  "data": [
    {"smiles": "O=C(O)[C@H]1[C@H](Cn2nnc3ccccc3c2=O)CC[C@@H]1C(=O)c1ccc(OCCC2CCOCC2)cc1", "note": "[BAY-7598]", "values": [
      {"measurement": "inhibition", "setting": "[1]", "value": 7, "unit": "%"},
      {"measurement": "inhibition", "setting": "[2]", "value": -9.72, "unit": "%"},
      {"measurement": "inhibition", "setting": "[3]", "value": 4, "unit": "%"},
      {"measurement": "inhibition", "setting": "[4]", "value": -7, "unit": "%"},
      {"measurement": "inhibition", "setting": "[5]", "value": 7, "unit": "%"},
      {"measurement": "inhibition", "setting": "[6]", "value": 9, "unit": "%"},
      {"measurement": "inhibition", "setting": "[7]", "value": -9, "unit": "%"},
      {"measurement": "inhibition", "setting": "[8]", "value": 9, "unit": "%"},
      {"measurement": "inhibition", "setting": "[9]", "value": 9, "unit": "%"},
      {"measurement": "inhibition", "setting": "[10]", "value": 0, "unit": "%"},
      {"measurement": "inhibition", "setting": "[11]", "value": -10, "unit": "%"},
      {"measurement": "inhibition", "setting": "[12]", "value": 15, "unit": "%"},
      {"measurement": "inhibition at 90 min, 10 µM", "setting": "[13]", "value": "0% (not active)"},
      {"measurement": "inhibition", "setting": "[14]", "value": 0, "unit": "%"},
      {"measurement": "inhibition", "setting": "[15]", "value": 0, "unit": "%"}
    ]}
  ]
}
